Measurements published in ChEMBL document CHEMBL2021890, “A new class of prolylcarboxypeptidase inhibitors, part 1: discovery and evaluation” (Bioorg Med Chem Lett, 2012).

How the values were obtained:
[1] = Ratio of apparent permeability from basolateral to apical side over apical to basolateral side in […] LLC cells expressing human MDR1 at 5 uM; type: ADME, cell-based
[2] = Apparent permeability across pig LLC-PK1 cells at 5 uM; type: ADME, cell-based, Sus scrofa
[3] = Drug uptake in C57 mouse brain at 100 mg/kg, po after 20 hrs by LC/MS analysis; type: ADME, organism-based; design: dose 100 mg/kg, route oral; details: read-out: Drug uptake
[4] = Ratio of drug level in brain to plasma in C57 mouse at 100 mg/kg, po after 20 hrs by LC/MS analysis; type: ADME, organism-based; design: dose 100 mg/kg, route oral; details: read-out: BPR
[5] = test system: Mus musculus; assay: Ex-vivo inhibition of PrCP in heat inactivated 100% plasma of C57 mouse assessed as target engagement at 100 mg/kg, po after 20 hrs calculated as [cmpd]plasma/([cmpd]plasma + Ki (heat inactivated plasma))x100; type: functional
[6] = test system: Mus musculus; assay: Ex-vivo inhibition of PrCP in heat inactivated 100% plasma of C57 mouse assessed as target engagement at 100 mg/kg, po after 20 hrs by FRET analysis; type: functional
[7] = target: Mus musculus; assay: Ex-vivo inhibition of PrCP in heat inactivated 25% plasma of po dosed mouse by FRET analysis; type: functional, organism-based
[8] = Drug uptake in C57 mouse plasma at 100 mg/kg, po after 20 hrs by LC/MS analysis; type: ADME, organism-based; design: dose 100 mg/kg, route oral
[9] = target: Mus musculus; assay: Ex-vivo inhibition of PrCP in heat inactivated 100% plasma of po dosed mouse by FRET analysis; type: functional, organism-based
[10] = target: Mus musculus; assay: Ex-vivo inhibition of po dosed mouse PrCP in the absence of plasma by FRET analysis; type: functional, organism-based
[11] = Ratio of apparent permeability from basolateral to apical side over apical to basolateral side in […] LLC cells expressing […] MDR1a at 5 uM; type: ADME, cell-based
[12] = test system: Mus musculus; assay: Plasma shift, ratio of Ki for PrCP in heat inactivated 100% plasma of po dosed mouse to Ki for po dosed mouse PrCP in the absence of plasma; type: functional
[13] = Volume of distribution in mouse at 0.5 mg/kg, iv and 1 mg/kg, po; type: ADME, organism-based; details: in vivo
[14] = target: T1, Lysosomal Pro-X carboxypeptidase (Mus musculus, UniProt Q7TMR0); assay: Inhibition of mouse PrCP
T1 sequence (Q7TMR0 whole entry): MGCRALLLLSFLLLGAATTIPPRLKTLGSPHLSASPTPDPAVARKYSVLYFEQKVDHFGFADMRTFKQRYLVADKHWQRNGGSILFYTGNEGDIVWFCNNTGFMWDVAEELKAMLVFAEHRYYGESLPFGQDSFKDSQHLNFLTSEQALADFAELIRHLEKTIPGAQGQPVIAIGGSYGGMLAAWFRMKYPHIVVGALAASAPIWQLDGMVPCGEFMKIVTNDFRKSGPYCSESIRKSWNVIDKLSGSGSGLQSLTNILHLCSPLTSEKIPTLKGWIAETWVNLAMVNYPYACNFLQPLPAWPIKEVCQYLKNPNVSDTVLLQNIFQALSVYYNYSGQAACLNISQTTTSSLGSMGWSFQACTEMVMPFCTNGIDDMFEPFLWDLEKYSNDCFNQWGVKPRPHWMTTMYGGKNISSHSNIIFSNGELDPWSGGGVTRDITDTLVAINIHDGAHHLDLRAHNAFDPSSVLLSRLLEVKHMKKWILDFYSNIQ

[15] = Plasma protein binding in 10% mouse plasma assessed as percentage unbound; type: ADME, cell-free
[16] = Ratio of drug level in brain to plasma in C57 mouse at 30 mg/kg, po after 20 hrs by LC/MS analysis; type: ADME, organism-based; design: dose 30 mg/kg, route oral; details: read-out: BPR
[17] = Metabolic stability in mouse liver microsomes after 30 mins by LC/MS analysis; type: ADME, Microsome; details: read-out: Stability
[18] = test system: Mus musculus; assay: Dose normalized AUC in mouse at 1 mg/kg, po; type: ADME, organism-based; design: dose 1 mg/kg, route oral; details: in vivo
[19] = Oral bioavailability in mouse at 1 mg/kg; type: ADME, organism-based; details: in vivo
[20] = Clearance in mouse at 0.5 mg/kg, iv and 1 mg/kg, po; type: ADME, organism-based; details: in vivo
[21] = Plasma protein binding in 10% human plasma assessed as percentage unbound; type: ADME, cell-free
[22] = Drug uptake in C57 mouse brain at 30 mg/kg, po after 20 hrs by LC/MS analysis; type: ADME, organism-based; design: dose 30 mg/kg, route oral; details: read-out: Drug uptake
[23] = Half life in mouse at 0.5 mg/kg, iv and 1 mg/kg, po; type: ADME, organism-based; details: in vivo
[24] = test system: Mus musculus; assay: Ex-vivo inhibition of PrCP in heat inactivated 100% plasma of C57 mouse assessed as target engagement at 30 mg/kg, po after 20 hrs calculated as [cmpd]plasma/([cmpd]plasma + Ki (heat inactivated plasma))x100; type: functional
[25] = Metabolic stability in human liver microsomes after 30 mins by LC/MS analysis; type: ADME, Microsome; details: read-out: Stability
[26] = Apparent permeability across pig LLC-PK1 cells at 1 uM; type: ADME, cell-based, Sus scrofa
[27] = Drug uptake in C57 mouse plasma at 30 mg/kg, po after 20 hrs by LC/MS analysis; type: ADME, organism-based; design: dose 30 mg/kg, route oral
[28] = test system: Mus musculus; assay: Ex-vivo inhibition of PrCP in heat inactivated 100% plasma of C57 mouse assessed as target engagement at 30 mg/kg, po after 20 hrs by FRET analysis; type: functional
[29] = test system: Mus musculus; assay: Ex-vivo inhibition of PrCP in heat inactivated 100% plasma of C57 mouse assessed as target engagement at 80 mg/kg, po after 20 hrs by FRET analysis; type: functional
[30] = Drug uptake in C57 mouse brain at 80 mg/kg, po after 20 hrs by LC/MS analysis; type: ADME, organism-based; design: dose 80 mg/kg, route oral; details: read-out: Drug uptake
[31] = test system: Mus musculus; assay: Ex-vivo inhibition of PrCP in heat inactivated 100% plasma of C57 mouse assessed as target engagement at 80 mg/kg, po after 20 hrs calculated as [cmpd]plasma/([cmpd]plasma + Ki (heat inactivated plasma))x100; type: functional
[32] = Ratio of drug level in brain to plasma in C57 mouse at 80 mg/kg, po after 20 hrs by LC/MS analysis; type: ADME, organism-based; design: dose 80 mg/kg, route oral; details: read-out: BPR
[33] = Drug uptake in C57 mouse plasma at 80 mg/kg, po after 20 hrs by LC/MS analysis; type: ADME, organism-based; design: dose 80 mg/kg, route oral
[34] = Ratio of drug level in brain to plasma in C57 mouse at 10 mg/kg, po after 20 hrs by LC/MS analysis; type: ADME, organism-based; design: dose 10 mg/kg, route oral; details: read-out: BPR
[35] = Drug uptake in C57 mouse plasma at 10 mg/kg, po after 20 hrs by LC/MS analysis; type: ADME, organism-based; design: dose 10 mg/kg, route oral
[36] = Drug uptake in C57 mouse brain at 10 mg/kg, po after 20 hrs by LC/MS analysis; type: ADME, organism-based; design: dose 10 mg/kg, route oral; details: read-out: Drug uptake
[37] = test system: Mus musculus; assay: Ex-vivo inhibition of PrCP in heat inactivated 100% plasma of C57 mouse assessed as target engagement at 10 mg/kg, po after 20 hrs calculated as [cmpd]plasma/([cmpd]plasma + Ki (heat inactivated plasma))x100; type: functional
[38] = test system: Mus musculus; assay: Ex-vivo inhibition of PrCP in heat inactivated 100% plasma of C57 mouse assessed as target engagement at 10 mg/kg, po after 20 hrs by FRET analysis; type: functional
[39] = Volume of distribution in mouse at 2 mg/kg, iv and 10 mg/kg, po; type: ADME, organism-based; details: in vivo
[40] = Oral bioavailability in mouse at 10 mg/kg; type: ADME, organism-based; details: in vivo
[41] = test system: Mus musculus; assay: Dose normalized AUC in mouse at 10 mg/kg, po; type: ADME, organism-based; design: dose 10 mg/kg, route oral; details: in vivo
[42] = Clearance in mouse at 2 mg/kg, iv and 10 mg/kg, po; type: ADME, organism-based; details: in vivo
[43] = Half life in mouse at 2 mg/kg, iv and 10 mg/kg, po; type: ADME, organism-based; details: in vivo

Compound	concentration at 20 h [3] [nM]	Kp at 20 h [4]	Ki [7] [nM]	concentration at 20 h [8] [nM]	Ki [9] [nM]	Ki [10] [nM]	Vd [13] [L/kg]	IC50 [14] [nM]	fraction unbound [15]	remaining at 0.5 h [17] [%]	AUC/dose [18] [µM·kg·h/mg]	bioavailability [19] [%]	clearance [20] [mL/min/kg]	fraction unbound [21]	half-life [23] [h]	remaining at 0.5 h [25] [%]	Papp at 1 µM [26] [×10⁻⁶ cm/s]	inhibition in vivo at 100 mg/kg [5] [%]	inhibition in vivo at 100 mg/kg [6] [%]	also measured
C[C@@H](c1ccc(-c2ccccc2)cc1)[C@H](NC(=O)C(C)(C)N)C(=O)N1CCC[C@H]1c1nc2cc(Cl)c(Cl)cc2[nH]1	757	0.24	4.6	3120	16.3	0.7	–	–	–	–	–	–	–	–	–	–	–	99.5	97.2	Ratio [1]: 8; Papp at 5 µM [2]: 2.3 ×10⁻⁶ cm/s; Ratio [11]: 4.2; Ratio Ki [12]: 23.3
Cc1cc(C2CCN(C(=O)[C@@H]3CN(C(C)(C)C)C[C@H]3c3ccc(F)cc3F)CC2)n(-c2ccc(F)c(F)c2)n1	–	–	9.3	–	18.3	6.4	13	9.1	0.16	52	0.2	46	71	0.25	1.9	39	28	–	–	inhibition in vivo at 80 mg/kg [29]: 99.4%; concentration at 20 h [30]: 1180 nM; inhibition in vivo at 80 mg/kg [31]: 99.1%; Kp at 20 h [32]: 0.63; concentration at 20 h [33]: 1910 nM
Cc1nc(C2CCN(C(=O)[C@@H]3CN(C(C)(C)C)C[C@H]3c3ccc(F)cc3F)CC2)n(-c2ccc(Cl)c(C)c2)n1	–	–	1.1	–	1.4	1	–	10	0.13	22	–	–	–	0.16	–	11	–	–	–	Vd [39]: 17 L/kg; bioavailability [40]: 20%; AUC/dose [41]: 0.05 µM·kg·h/mg; clearance [42]: 128 mL/min/kg; half-life [43]: 1.8 h

The next compounds have a lower Ki [7] than those just listed; values first:

concentration at 20 h [3] [nM]	Kp at 20 h [4]	Ki [7] [nM]	concentration at 20 h [8] [nM]	Ki [9] [nM]	Ki [10] [nM]	Vd [13] [L/kg]	IC50 [14] [nM]	fraction unbound [15]	remaining at 0.5 h [17] [%]	AUC/dose [18] [µM·kg·h/mg]	bioavailability [19] [%]	clearance [20] [mL/min/kg]	fraction unbound [21]	half-life [23] [h]	remaining at 0.5 h [25] [%]	Papp at 1 µM [26] [×10⁻⁶ cm/s]	Compound	inhibition in vivo at 100 mg/kg [5] [%]	inhibition in vivo at 100 mg/kg [6] [%]	also measured
801	0.46	0.7	1800	1.4	0.5	22	0.3	0.16	3	0.05	18	121	0.18	3.1	4	28.8	CC(C)(C)N1C[C@@H](C(=O)N2CCC(c3ccnn3-c3ccc(F)c(Cl)c3)CC2)[C@H](c2ccc(F)cc2F)C1	99.9	99.9	Kp at 20 h [34]: 0.11; concentration at 20 h [35]: 196 nM; concentration at 20 h [36]: 21 nM; inhibition in vivo at 10 mg/kg [37]: 99.3%; inhibition in vivo at 10 mg/kg [38]: 99.5%
–	–	0.5	–	0.9	0.4	13	0.4	0.17	43	0.19	31	48	0.11	2.9	30	26.9	Cc1cc(C2CCN(C(=O)[C@@H]3CN(C(C)(C)C)C[C@H]3c3ccc(F)cc3F)CC2)n(-c2cc(Cl)ccc2Cl)n1	–	–	Kp at 20 h [16]: 1.35; concentration at 20 h [22]: 698 nM; inhibition in vivo at 30 mg/kg [24]: 99.8%; concentration at 20 h [27]: 547 nM; inhibition in vivo at 30 mg/kg [28]: 97.7%
